Assay results as given in US20100041642A1, “UREA INHIBITORS OF MAP KINASES” (LOCUS PHARMACEUTICALS, INC., priority 2008, published 2010).

Biological target: p38 (Homo sapiens, UniProt Q16539)
Assay: Protein Kinase Assay (33P incorporation from γ-[33P]ATP into GST-ATF-2)
Format: biochemical
Settings: 2 nM p38, preincubated 20 min at 30° C.; 10 uM cold ATP, 2 uM GST-ATF2, 70 min; read-out: ACT. (Activity), IC50 category in Protein Kinase Assay
Procedure: Protein Kinase Assay. The protein kinase activity of p38 was determined by measuring the incorporation of ^33P from γ-[^33P]ATP into the GST-ATF-2 substrate, amino acids 19-96 (Upstate, N.Y. USA). The reactions were carried out in a final volume of 50 μL of 24 mM Tris-HCl buffer, pH 7.5, containing 13 mM MgCl2, 12% Glycerol, 2% DMSO, 2 mM DTT, […] of γ-[^33P]ATP (1000 Ci/mmol; 1 Ci=37 GBq) (GE Healthcare, Piscataway, N.J.), 10 uM cold ATP (GE Healthcare, Piscataway, N.J.), and 2 uM GST-ATF2. Compounds were preincubated with 2 nM p38 for 20 min at 30° C.; the reactions were initiated by the addition of GST-ATF2 and ATP and incubated for 70 min at 30° C. before being stopped by the addition of 10 μL of 600 mM phosphoric acid. The phosphorylated substrate was captured on phosphocellulose 96-well plate (Millipore MAPHNOB 10), washed with 100 mM phosphoric acid, and counted in a BeckmenCoulter LS6500 liquid scintillation counter. […] (Activity).

Sequence of p38 (Q16539 whole entry): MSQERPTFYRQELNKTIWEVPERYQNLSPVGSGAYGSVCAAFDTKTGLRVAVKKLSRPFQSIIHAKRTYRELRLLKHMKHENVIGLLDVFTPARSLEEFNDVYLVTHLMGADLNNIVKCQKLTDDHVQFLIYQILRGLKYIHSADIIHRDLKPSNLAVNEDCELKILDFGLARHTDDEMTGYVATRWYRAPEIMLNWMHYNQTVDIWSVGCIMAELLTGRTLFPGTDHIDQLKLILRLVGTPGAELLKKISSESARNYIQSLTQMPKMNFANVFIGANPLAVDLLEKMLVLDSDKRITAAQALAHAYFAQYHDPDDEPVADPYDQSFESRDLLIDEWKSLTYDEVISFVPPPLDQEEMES

Row | SMILES | IC50 [µM]
1 | Cc1ccc(NC(=O)Nc2cc(C(C)(C)C)oc2C(=O)N2CCNC(=O)C2(C)C)cc1-c1ccc(OCCN(C)C)nc1 [1-(5-tert-butyl-2-(2,2-dimethyl-3-oxopiperazine-1-carbonyl)furan-3-yl)-3-(3-(6-(2-(dimethylamino)ethoxy)pyridin-3-yl)-4-methylphenyl)urea] | < 0.1
2 | Cc1ccc(NC(=O)Nc2cc(C(C)(C)C)sc2C(=O)N2CCNC(=O)C2(C)C)cc1-c1ccc(CN2CCOCC2)nc1 [1-(5-tert-butyl-2-(2,2-dimethyl-3-oxopiperazine-1-carbonyl)thiophen-2-yl)-3-(4-methyl-3-(6-(morpholinomethyl)pyridin-3-yl)phenyl)urea] | < 0.1
3 | Cc1ccc(-c2ccc(N3CCOCC3)cn2)cc1NC(=O)Nc1cc(C(C)(C)C)sc1C(=O)N1CCNC(=O)C1(C)C [1-(5-tert-butyl-2-(2,2-dimethyl-3-oxopiperazine-1-carbonyl)thiophen-3-yl)-3-(2-methyl-5-(5-morpholinopyridin-2-yl)phenyl)urea] | < 0.1
4 | COc1ccc(-c2cc(NC(=O)Nc3cc(C(C)(C)C)sc3C(=O)N3CCNC(=O)C3(C)C)ccc2C)cn1 [1-(5-tert-butyl-2-(2,2-dimethyl-3-oxopiperazine-1-carbonyl)thiophen-3-yl)-3-(3-(6-methoxypyridin-3-yl)-4-methylphenyl)urea] | < 0.1
5 | Cc1cc(NC(=O)Nc2cc(C(C)(C)C)sc2C(=O)N2CCNC(=O)C2(C)C)cc(-c2ccc(N3CCOCC3)cn2)c1 [1-(5-tert-butyl-2-(2,2-dimethyl-3-oxopiperazine-1-carbonyl)thiophen-3-yl)-3-(3-methyl-5-(5-morpholinopyridin-2-yl)phenyl)urea] | < 0.1
6 | Cc1ccc(NC(=O)Nc2cc(C(C)(C)C)sc2C(=O)N2CCNC(=O)C2(C)C)cc1-c1ccc(N2CCOCC2)cn1 [1-(5-tert-butyl-2-(2,2-dimethyl-3-oxopiperazine-1-carbonyl)thiophen-3-yl)-3-(4-methyl-3-(5-morpholinopyridin-2-yl)phenyl)urea] | < 0.1
7 | Cc1ccc(NC(=O)Nc2cc(C(C)(C)C)sc2C(=O)N2CCNC(=O)C2(C)C)cc1-c1ccc(N2CCOCC2)nc1 [1-(5-tert-butyl-2-(2,2-dimethyl-3-oxopiperazine-1-carbonyl)thiophen-3-yl)-3-(4-methyl-3-(6-morpholinopyridin-3-yl)phenyl)urea] | < 0.1
8 | CCN1CCN(C(=O)c2sc(C(C)(C)C)cc2NC(=O)Nc2ccc(C)c(-c3ccc(CN4CCOCC4)nc3)c2)C(C)(C)C1=O [1-(5-tert-butyl-2-(4-ethyl-2,2-dimethyl-3-oxopiperazine-1-carbonyl)thiophen-3-yl)-3-(4-methyl-3-(6-(morpholinomethyl)pyridin-3-yl)phenyl)urea] | < 0.1
9 | Cc1ccc(NC(=O)Nc2cc(C(C)(C)C)sc2C(=O)N2CCN(C(C)C)C(=O)C2(C)C)cc1-c1ccc(CN2CCOCC2)nc1 [1-(5-tert-butyl-2-(4-isopropyl-2,2-dimethyl-3-oxopiperazine-1-carbonyl)thiophen-3-yl)-3-(4-methyl-3-(6-(morpholinomethyl)pyridin-3-yl)phenyl)urea] | < 0.1
10 | Cc1ccc(NC(=O)Nc2cc(C(C)(C)C)sc2C(=O)N2CCN(C)C(=O)C2)cc1-c1ccc(CN2CCOCC2)nc1 [1-(5-tert-butyl-2-(4-methyl-3-oxopiperazine-1-carbonyl)thiophen-3-yl)-3-(4-methyl-3-(6-(morpholinomethyl)pyridin-3-yl)phenyl)urea] | < 0.1
11 | COc1ccc(-c2cc(NC(=O)Nc3sc(C(C)(C)C)cc3C(=O)N3CCN(C)C(=O)C3(C)C)c(F)cc2C)cn1 [1-(5-tert-butyl-3-(2,2,4-trimethyl-3-oxopiperazine-1-carbonyl)thiophen-2-yl)-3-(2-fluoro-5-(6-methoxypyridin-3-yl)-4-methylphenyl)urea] | < 0.1
12 | Cc1ccc(NC(=O)Nc2sc(C(C)(C)C)cc2C(=O)N2CCN(C)C(=O)C2(C)C)cc1-c1cnc(NCC(O)CO)nc1 (stereo not drawn) [1-(5-tert-butyl-3-(2,2,4-trimethyl-3-oxopiperazine-1-carbonyl)thiophen-2-yl)-3-(3-(2-(2,3-dihydroxypropylamino)pyrimidin-5-yl)-4-methylphenyl)urea] | < 0.1
